The nature of test [1]: Compound was coli. Details: species or system Escherichia coli; call rule not given here.
Test [2] can be described thus: Compound was coli; Inactive. Details: species or system Escherichia coli.

This is an account of results in ChEMBL document CHEMBL1133292, “Some selective reactions of moenomycin A” (Bioorg Med Chem Lett, 2000).

Turning to `C=CC(C)(CC/C=C(\C)CCC=C(C)C)C(O)CO[C@H](COP(=O)(O)O[C@H]1O[C@@H](C(N)=O)[C@@](C)(O)[C@H](OC(N)=O)[C@@H]1O[C@@H]1O[C@@H](CO[C@@H]2O[C@@H](CO)[C@@H](O)[C@H](O)[C@@H]2O)[C@@H](O[C@@H]2O[C@@H](C)[C@@H](O[C@@H]3O[C@@H](C(N)=O)[C@H](O)[C@H](O)[C@@H]3O)[C@H](O)[C@@H]2NC(C)=O)[C@H](O)[C@@H]1NC(C)=O)C(=O)O` (stereo not given in full), in test [1], the IC50 was 106 nM l-1.
Regarding `CCCCCCCCCCCCCCNCCO[C@H](COP(=O)(O)O[C@H]1O[C@@H](C(N)=O)[C@@](C)(O)[C@H](OC(N)=O)[C@@H]1O[C@@H]1O[C@@H](CO[C@@H]2O[C@@H](CO)[C@@H](O)[C@H](O)[C@@H]2O)[C@@H](O[C@@H]2O[C@@H](C)[C@@H](O[C@@H]3O[C@@H](C(N)=O)[C@H](O)[C@H](O)[C@@H]3O)[C@H](O)[C@@H]2NC(C)=O)[C@H](O)[C@@H]1NC(C)=O)C(=O)O`, the IC50 in test [1] is listed as 247 nM l-1.
For the compound `CCCCCCCCc1ccc(NCCO[C@H](COP(=O)(O)O[C@H]2O[C@@H](C(N)=O)[C@@](C)(O)[C@H](OC(N)=O)[C@@H]2O[C@@H]2O[C@@H](CO[C@@H]3O[C@@H](CO)[C@@H](O)[C@H](O)[C@@H]3O)[C@@H](O[C@@H]3O[C@@H](C)[C@@H](O[C@@H]4O[C@@H](C(N)=O)[C@H](O)[C@H](O)[C@@H]4O)[C@H](O)[C@@H]3NC(C)=O)[C@H](O)[C@@H]2NC(C)=O)C(=O)O)cc1`, the IC50 in test [1] is reported as 31 nM l-1.
Regarding `CC(=O)N[C@@H]1[C@H](O[C@H]2[C@H](O)[C@H](NC(C)=O)[C@H](O[C@@H]3[C@@H](OP(=O)(O)OC[C@@H](OCCN(C4CCCCC4)C4CCCCC4)C(=O)O)O[C@@H](C(N)=O)[C@@](C)(O)[C@@H]3OC(N)=O)O[C@H]2CO[C@@H]2O[C@@H](CO)[C@@H](O)[C@H](O)[C@@H]2O)O[C@@H](C)[C@@H](O[C@@H]2O[C@@H](C(N)=O)[C@H](O)[C@H](O)[C@@H]2O)[C@@H]1O`, the IC50 entry in test [2] is “Not Active”.
For `C=C(C/C=C(\C)CCC=C(C)C)CCC(C)(C)/C=C/CC/C(C)=C/CO[C@@H](COP(=O)(O)O[C@H]1O[C@H](C(N)=O)[C@@](C)(O)[C@H](OC(N)=O)[C@H]1O[C@@H]1O[C@H](CO[C@@H]2O[C@H](CO)[C@@H](O)[C@H](O)[C@H]2O)[C@@H](O[C@@H]2O[C@H](C)[C@@H](O[C@@H]3O[C@H](C(=O)NC4=C(O)CCC4=O)[C@H](O)[C@H](O)[C@H]3O)[C@H](O)[C@H]2NC(C)=O)[C@H](O)[C@H]1NC(C)=O)C(=O)O` [MOENOMYCIN A], the IC50 in test [1] is on record as 1.5 nM l-1.
